Test results reported in patent publication US20200113852A1, “METHODS OF PATIENT SELECTION AND TREATING TRXR- OR PRDX-OVEREXPRESSED CANCERS” (TRIACT THERAPEUTICS, INC., priority 2017, published 2020).
Where two headings read alike, the source gives them in different places.

Experiments:
[1] = Phase I clinical trial GBM, pharmacokinetics; assay type: in vivo, human; conditions: human, geometric mean±SD, plasma, read-out: Cmax
Excerpt: No cytochrome P450-inducing anticonvulsants. However, Gliadel was permitted.
Dosing is IV 2×/week continuous.

[2] = tested on: MDA-MB-231 cells; experiment: ROS production (CellROXOrange); assay type: cell-based, human; conditions: GSH-depleted MDA-MB-231, 100 μM, 4 h
[3] = molecular target: T1, TrxR1 (Homo sapiens, UniProt Q16881); experiment: Mass spectrometry of immunoprecipitated TrxR1 modified by Iniparib in HCT116 cells; assay type: cell-based; set-up: TrxR1 and TrxR2 were immunoprecipitated from octylglucoside cell extracts (12 mg proteins); endogenous in cells; host or cells: HCT116 (BSO-pretreated); conditions: for TrxR1 modified on Sec residue: 100 μM, GSH-depleted HCT116
T1 sequence (Q16881 1-499 isoform Q16881-5): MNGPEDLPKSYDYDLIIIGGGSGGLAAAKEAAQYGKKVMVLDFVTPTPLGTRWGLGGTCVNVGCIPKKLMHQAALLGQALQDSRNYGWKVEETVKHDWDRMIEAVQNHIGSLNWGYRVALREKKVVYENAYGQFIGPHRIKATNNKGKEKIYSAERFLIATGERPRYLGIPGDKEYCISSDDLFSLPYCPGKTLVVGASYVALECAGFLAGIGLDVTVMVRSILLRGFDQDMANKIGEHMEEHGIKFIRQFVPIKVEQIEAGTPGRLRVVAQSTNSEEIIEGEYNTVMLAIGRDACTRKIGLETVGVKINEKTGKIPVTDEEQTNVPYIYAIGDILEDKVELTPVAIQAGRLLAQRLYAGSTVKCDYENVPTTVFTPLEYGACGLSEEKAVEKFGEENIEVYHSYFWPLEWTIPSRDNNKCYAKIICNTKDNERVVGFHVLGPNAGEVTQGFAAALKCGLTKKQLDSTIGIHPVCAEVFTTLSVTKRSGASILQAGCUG
Procedure: After separation by SDS-PAGE under reducing conditions and PageBlue® protein staining (Thermo scientific), bands of interest were excised, reduced with DTT, alkylated with iodoacetamide and in-gel digested with trypsin (Promega), according to the method of Shevchenko et al. (24). Peptides were extracted with 50 mM ammonium bicarbonate and 50% acetonitrile in 0.2% formic acid and analyzed by Nano LC-MS/MS after partial evaporation in a speed-vac concentrator. LC-MS/MS experiments were performed on an NanoAcquity UPLC (Waters) coupled to a hybrid LTQ Orbitrap Velos mass spectrometer (Thermo Fisher Scientific) equipped with a nanoelectrospray source. Tryptic digests were loaded onto a nanoAcquity UPLC Trap column (Symmetry C18, 5 μm, 180 μm×20 mm, Waters) and washed with 0.2% FA at 20 μl/min for 5 min. Peptides were then eluted on a C18 reverse-phase nanoAcquity column (BEH130 C18, 1.7 μm, 75 μm×250 mm, Waters) with a linear gradient of 7-30% solvent B (H2O/CH3CN/HCOOH, 10:90:0.2, by vol.) for 85 min, 30-90% solvent B for 10 min, and 90% solvent B for 5 min, at a flow rate of 250 nL/min. The mass spectrometer was operated in the data-dependent mode to automatically switch between MS and MS/MS acquisition. Survey full scan MS spectra (m/z 300-1,600) were acquired in the Orbitrap with a resolution of 60,000 at m/z 400. The AGC was set to 1×10^6 with a maximum injection time of 100 ms. The most intense ions (up to 20) were then isolated for fragmentation in the LTQ linear ion trap with normalized collision energy of 28% at the default activation q of 0.25 with an AGC of 5×10^3 and a maximum injection time of 200 ms. The dynamic exclusion time window was set to 80 s. LC-MS/MS data, acquired using the Xcalibur software (Thermo-Fisher Scientific), were processed using a homemade Visual Basic program software developed using XRawfile libraries (distributed by Thermo-Fisher Scientific) to generate a MS/MS peak list (MGF file) which will be used for database searching. This MGF file contained the exact parent mass and the retention time (RT) associated with each MS/MS spectrum. The exact parent mass is the 12C isotope ion mass of the most intense isotopic pattern detected on the high resolution Orbitrap MS parallel scan and included in the MS/MS selection window. The RT is issued from the LTQ-MS/MS scan. Database searches were done using our internal MASCOT server (version 2.1, matrix Science) using the SwissProt human database. […] The precursor mass tolerance was set to 5 ppm and the fragment ion tolerance was set to 0.5 Da. The number of missed cleavage sites for trypsin was set to 3. Mascot result files (“.dat” files) were imported into Scaffold software. Scaffold (version 3.4.5, Proteome software Inc., Portland, Oreg.) was used to validate MS/MS based peptide and protein identifications. Queries were also used for XTandem parallel Database Search. The compiled results of both database searches were exported.

[4] = tested on: cytosol and mitochondria of HCT116 cells; experiment: Subcellular fractionation: Iniparib-biotin labeling of cytosol and mitochondria; assay type: cell-based, human
Procedure: Cells were homogenized in an ice-cold buffer containing 10 mM Tris-HCl, pH 7.5, protease and phosphatase inhibitors, and 250 mM sucrose in the case of mitochondria preparation, using a glass dounce tissue grinder (30 strokes). After centrifugation at 1,000×g for 5 min at 4° C., homogenates supernatants were collected. For cytosol preparation the 1000×g supernatants were submitted to differential centrifugation in Tris-HCl buffer: a first centrifugation was carried out at 22,000×g for 20 min and the resulting supernatants were further centrifuged at 100,000×g for 60 min. The final supernatants were referred to as the cytosolic fractions.
FIG. 11A and FIG. 11B show HCT116 cells were pre-treated or not for 48 h with 1 mM BSO. Thereafter Iniparib-biotin at 100 μM was added for 4 h. Cell homogenates were then processed for cytosol preparation (FIG. 11A) or mitochondria immuno-purification (FIG. 11B).
Cell homogenates were then processed for cytosol preparation or mitochondria immuno-purification. […]

| Structure (SMILES) | Cmax ([1]; 5.1 mg/kg IV 2×/week) [ng/mL] | Cmax ([1]; 6.1 mg/kg IV 2×/week) [ng/mL] | Cmax ([1]; 6.8 mg/kg IV 2×/week) [ng/mL] | Cmax ([1]; 8.0 mg/kg IV 2×/week) [ng/mL] | Cmax ([1]; 8.6 mg/kg IV 2×/week) [ng/mL] | Cmax ([1]; 9.5 mg/kg IV 2×/week) [ng/mL] | ROS [2] | TrxR1 modified on both adjacent Cys and Sec residues ([3]; 1 h) [%] | TrxR1 modified on Sec residue ([3]; 1 h) [%] | 5 other TrxR1 peptides modified on Cys residues, altogether ([3]; 4 h) | TrxR1 modified on both adjacent Cys and Sec residues ([3]; 4 h) [%] | TrxR1 modified on Sec residue ([3]; 4 h) [%] | in vitro labeling of isolated cytosolic fraction ([4]; 30 μM Iniparib-biotin, with or without NADH/NADPH) | protein targets in isolated cytosol and mitochondria ([4]; fractions from Iniparib-biotin treated HCT116 cells) |
| --- | --- | --- | --- | --- | --- | --- | --- | --- | --- | --- | --- | --- | --- | --- |
| NC(=O)c1ccc(I)c([N+](=O)[O-])c1 [Iniparib, 4-iodo-3-nitrobenzamide] | 642 ± 315 | 928 ± 397 | 1020 | 3690 | 1520 | 2140 | accumulation of ROS | 0.8 | 50 | less than 7 % of the total protein | 4.7 | 67 | – | – |
| O=C(CCCC[C@@H]1SC[C@@H]2NC(=O)N[C@@H]21)NCCNC(=O)c1ccc(I)c([N+](=O)[O-])c1 [Iniparib-biotin, 4-iodo-3-nitro-N-(2-(5-((3 aS,4S,6aR)-2-oxohexahydro-1H-thieno[3,4-d]imidazol-4-yl)pentanamido)ethyl)benzamide] | – | – | – | – | – | – | – | – | – | – | – | – | mainly when NADPH was added | present in both cell compartments |
